What was measured:
[1] = target: T1, arylacetamide deacetylase-like 1 (AADACL1) (Homo sapiens, UniProt Q6PIU2); assay: hydrolysis of exogenous HAG in human platelet lysate, blocked by JW480; assay type: cell-based
T1 sequence (Q6PIU2 1-408): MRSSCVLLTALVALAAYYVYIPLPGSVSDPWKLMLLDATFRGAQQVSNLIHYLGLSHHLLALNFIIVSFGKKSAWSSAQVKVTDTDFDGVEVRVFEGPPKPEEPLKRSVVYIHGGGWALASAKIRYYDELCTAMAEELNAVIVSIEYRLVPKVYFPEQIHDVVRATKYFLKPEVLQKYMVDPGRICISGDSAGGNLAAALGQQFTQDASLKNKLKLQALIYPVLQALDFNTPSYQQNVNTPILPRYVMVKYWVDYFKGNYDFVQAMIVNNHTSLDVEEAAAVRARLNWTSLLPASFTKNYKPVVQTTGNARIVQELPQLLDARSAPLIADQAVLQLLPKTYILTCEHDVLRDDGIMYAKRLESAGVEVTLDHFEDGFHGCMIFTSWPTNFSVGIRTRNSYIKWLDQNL

[2] = target: T1, arylacetamide deacetylase-like 1 (AADACL1); assay: HAG hydrolysis activity in lysates of JW480-treated human platelets; assay type: cell-based

SMILES | hydrolysis of exogenous HAG in human platelet lysate, blocked by JW480 [1] | % inhibition at 2 μM [2] [% inhibition at 2]
CCCCCCCCCCCCCCCCOC[C@H](CO)OC(C)=O [HAG, 1-O-hexadecyl-2-O-acetyl-sn-glycerol] | AADACL1 also hydrolyzes HAG to its corresponding monoalkylglycerol ether (C16 MAGE) in human platelets | –
CC(C)c1ccccc1OC(=O)NCCc1ccc2ccccc2c1 [JW480] | – | 90 ± 0.56

— paper PMC3948353 (Chemistry & biology, 2013)
